Reference: ChEMBL document CHEMBL4049443, “Discovery of 2-[[2-Ethyl-6-[4-[2-(3-hydroxyazetidin-1-yl)-2-oxoethyl]piperazin-1-yl]-8-methylimidazo[1,2-a]pyridin-3-yl]methylamino]-4-(4-fluorophenyl)thiazole-5-carbonitrile (GLPG1690), a First-in-Class Autotaxin Inhibitor Undergoing Clinical Evaluation for the Treatment of Idiopathic Pulmonary …” (J Med Chem, 2017)

Columns and labels:
[1] = molecular target: Cytochrome P450 3A4 (Homo sapiens, UniProt P08684); assay: Time-dependent inhibition of human liver microsomes CYP3A4; assay type: ADME
[2] = molecular target: Autotaxin (Homo sapiens, UniProt Q13822); assay: Inhibition of human ATX using LPC (16:0) as substrate after 30 mins by horseradish peroxidase/choline oxidase coupled enzyme based spectrophotometric analysis
[3] = molecular target: Voltage-gated inwardly rectifying potassium channel KCNH2 (Homo sapiens, UniProt Q12809); assay: Inhibition of human ERG by automated patch clamp assay
[4] = Oral bioavailability in mouse at 5 mg/kg; assay type: ADME, organism-based; details: in vivo
[5] = Oral bioavailability in rat at 5 mg/kg; assay type: ADME, organism-based; details: in vivo
[6] = molecular target: Autotaxin (Rattus norvegicus, UniProt Q64610); assay: Inhibition of ATX in rat plasma assessed as reduction in LPA 18:2 production after 2 hrs by LC-MS/MS analysis
[7] = Plasma clearance in rat at 1 mg/kg, iv; assay type: ADME, organism-based
[8] = Plasma clearance in mouse at 1 mg/kg, iv; assay type: ADME, organism-based

Chain of Cytochrome P450 3A4 (P08684 whole entry): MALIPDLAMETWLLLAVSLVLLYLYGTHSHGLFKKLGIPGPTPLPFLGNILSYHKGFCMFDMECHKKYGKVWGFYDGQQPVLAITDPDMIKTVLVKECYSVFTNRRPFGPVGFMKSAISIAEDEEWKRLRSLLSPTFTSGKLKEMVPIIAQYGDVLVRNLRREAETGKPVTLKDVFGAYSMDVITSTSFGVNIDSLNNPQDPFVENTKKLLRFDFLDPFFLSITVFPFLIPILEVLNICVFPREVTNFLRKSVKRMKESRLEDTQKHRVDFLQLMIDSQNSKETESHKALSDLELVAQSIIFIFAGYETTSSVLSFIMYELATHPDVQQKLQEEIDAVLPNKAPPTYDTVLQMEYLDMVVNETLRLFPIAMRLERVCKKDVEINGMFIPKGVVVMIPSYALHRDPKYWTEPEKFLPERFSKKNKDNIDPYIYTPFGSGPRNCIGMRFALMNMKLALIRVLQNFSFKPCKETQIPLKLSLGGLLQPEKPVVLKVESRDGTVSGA
Chain of Voltage-gated inwardly rectifying potassium channel KCNH2 (Q12809 whole entry): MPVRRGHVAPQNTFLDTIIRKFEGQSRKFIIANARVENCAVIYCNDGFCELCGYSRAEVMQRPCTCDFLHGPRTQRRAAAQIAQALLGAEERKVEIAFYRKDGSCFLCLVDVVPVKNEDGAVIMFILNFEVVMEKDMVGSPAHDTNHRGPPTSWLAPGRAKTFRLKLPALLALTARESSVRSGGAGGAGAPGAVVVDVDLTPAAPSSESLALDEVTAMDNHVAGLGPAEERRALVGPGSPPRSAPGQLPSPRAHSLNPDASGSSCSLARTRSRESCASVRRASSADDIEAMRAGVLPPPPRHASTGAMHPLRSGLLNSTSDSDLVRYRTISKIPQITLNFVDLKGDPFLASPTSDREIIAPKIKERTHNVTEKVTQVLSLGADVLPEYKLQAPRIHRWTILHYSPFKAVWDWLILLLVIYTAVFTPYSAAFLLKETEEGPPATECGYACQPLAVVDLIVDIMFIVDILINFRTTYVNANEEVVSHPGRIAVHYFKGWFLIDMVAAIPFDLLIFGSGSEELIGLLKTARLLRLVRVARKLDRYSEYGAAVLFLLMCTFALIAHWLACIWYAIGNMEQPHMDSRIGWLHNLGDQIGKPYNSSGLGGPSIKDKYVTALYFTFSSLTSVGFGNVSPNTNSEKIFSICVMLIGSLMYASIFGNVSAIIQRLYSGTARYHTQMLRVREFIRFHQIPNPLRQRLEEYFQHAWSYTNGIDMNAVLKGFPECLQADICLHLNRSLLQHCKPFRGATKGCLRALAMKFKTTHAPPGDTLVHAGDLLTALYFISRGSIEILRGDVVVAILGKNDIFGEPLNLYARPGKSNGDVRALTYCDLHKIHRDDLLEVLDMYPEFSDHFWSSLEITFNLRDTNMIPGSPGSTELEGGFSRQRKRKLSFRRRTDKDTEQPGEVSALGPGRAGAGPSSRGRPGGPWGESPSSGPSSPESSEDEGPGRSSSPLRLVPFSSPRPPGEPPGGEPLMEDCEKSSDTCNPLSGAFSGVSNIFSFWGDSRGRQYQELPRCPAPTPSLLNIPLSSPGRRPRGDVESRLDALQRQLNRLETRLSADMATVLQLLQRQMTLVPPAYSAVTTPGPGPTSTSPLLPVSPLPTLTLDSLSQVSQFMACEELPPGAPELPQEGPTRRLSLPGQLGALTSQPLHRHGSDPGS

Row | SMILES | TDI [1] | IC50 [2] | bioavailability [4] | bioavailability [5] | IC50 [6] | clearance [7] | clearance [8] | IC50 [3]
1 | CCc1nc2ccc(C3CCN(CC(=O)N4CC(O)C4)CC3)cn2c1N(C)c1nc(-c2ccc(F)cc2)c(C#N)s1 | Active | 27 nM | 12% | 15% | 22 nM | 51.7 mL/min/kg | 20 mL/min/kg | 2900 nM
2 | CCc1nc2c(C)cc(C3CCN(CC(=O)N4CC(O)C4)CC3)cn2c1N(C)c1nc(-c2ccc(F)cc2)c(C#N)s1 | Not Active | 103 nM |  |  |  |  |  | 
3 | CCc1nc2ccc(C3CCN(CC(=O)N4CC(O)C4)CC3)nn2c1N(C)c1nc(-c2ccc(F)cc2C#N)ns1 | Active | 297 nM |  |  |  |  |  | 

Second part, led by results:

Row | TDI [1] | IC50 [2] | bioavailability [4] | bioavailability [5] | IC50 [6] | clearance [7] | clearance [8] | SMILES | IC50 [3]
4 | Active | 60 nM |  |  |  |  |  | CCc1nc2ccc(N3CCN(CC(=O)N4CC(O)C4)CC3)nn2c1N(C)c1nc(-c2ccc(F)cc2)c(C#N)s1 | 
5 | Active | 26 nM |  |  |  |  |  | CCc1nc2ccc(N3CCN(CC(=O)N4CC(O)C4)CC3)cn2c1N(C)c1nc(-c2ccc(F)cc2)c(C#N)s1 | > 11000 nM
6 | Active | 274 nM |  |  |  |  |  | CCc1nc2ccc(N3CCN(CC(=O)N4CC(O)C4)CC3)cn2c1N(C)c1nc(-c2ccc(F)cc2)cs1 | 
